Experiments:
ϕDI Dut-Stl complex [1] = biological target: T1, ϕDI Dut-Stl complex (Staphylococcus aureus, UniProt A0A2D0TC87); test: Native-PAGE, disruption of Dut-Stl complex; assay type: binding; details: equimolar Dut and Stl; dUMP up to 1 mM
T1 construct: His-tagged Dut and purified Stl, E. coli; 1:1 molar ratio of Dut and Stl; with SaPIbov1 master repressor Stl (Staphylococcus aureus pathogenicity island SaPIbov1)

[2] = biological target: T2, ϕDI Dut (dimeric dUTPase) (Staphylococcus aureus, UniProt A0A2D0TC87); test: X-ray crystallography, […] Å; assay type: binding; details: Mg2+; active site, two Mg2+ per nucleotide
T2 construct: His-tagged, pET-28a, E. coli BL21(DE3); homodimer; eight helices, residues 7-163 in helices

ϕDI Dut-Stl complex [3] = biological target: T1, ϕDI Dut-Stl complex; test: Native-PAGE, disruption of Dut-Stl complex; details: equimolar Dut and Stl (17 μM); 4°C electrophoresis; competes with Stl binding to Dut
Text: Native-PAGE, disruption of Dut-Stl complex on ϕDI Dut-Stl complex | competing away the dimeric ϕDI Dut from binding to the SaPI Stl repressor, with an IC50

[4] = biological target: T2, ϕDI Dut (dimeric dUTPase); test: isothermal titration calorimetry; assay type: binding; details: 50 mM HEPES pH 7.5, 250 mM NaCl, 5 mM MgCl2, 25°C; single-site model; read-out: dissociation constant
Text: isothermal titration calorimetry on ϕDI Dut (dimeric dUTPase) | used to calculate the dissociation constant of ϕDI and ϕDI^A73L Duts against dUPNPP

[5] = test system: T3, ϕNM1 Dut (dimeric dUTPase); test: Malachite Green phosphate assay; assay type: biochemical, Staphylococcus phage phiNM1; details: 3-400 μM dUTP; 25°C; free Dut, no Stl; decimal comma (17.5)
T3 construct: His-tagged, pET-28a, E. coli BL21(DE3)
Text: Malachite Green phosphate assay on ϕNM1 Dut (dimeric dUTPase)

[6] = test system: T4, ϕO11 Dut (dimeric dUTPase); test: Malachite Green phosphate assay; assay type: biochemical, Staphylococcus phage phiO11; details: 3-400 μM dUTP; 25°C; free Dut, no Stl; decimal comma (17.4)
T4 construct: His-tagged, pET-28a, E. coli BL21(DE3); not the trimeric Dut of phage ϕ11
Text: Malachite Green phosphate assay on ϕO11 Dut (dimeric dUTPase)

[7] = test system: T5, ϕDII Dut (dimeric dUTPase); test: Malachite Green phosphate assay; assay type: biochemical, Staphylococcus phage phiDII; details: 3-400 μM dUTP; 25°C; free Dut, no Stl; decimal comma (11.1)
T5 construct: His-tagged, pET-28a, E. coli BL21(DE3)
Text: Malachite Green phosphate assay on ϕDII Dut (dimeric dUTPase)

[8] = test system: T6, ϕ55 Dut (dimeric dUTPase); test: Malachite Green phosphate assay; assay type: biochemical, Staphylococcus phage 55; details: 3-400 μM dUTP; 25°C; free Dut, no Stl; decimal comma (13.6)
T6 construct: His-tagged, pET-28a, E. coli BL21(DE3)
Text: Malachite Green phosphate assay on ϕ55 Dut (dimeric dUTPase)

[9] = biological target: SaPIbov1-encoded Stl repressor (Staphylococcus aureus (pathogenicity island SaPIbov1)); test: native gel or EMSA

For O=c1ccn([C@H]2C[C@H](O)[C@@H](COP(=O)(O)O)O2)c(=O)[nH]1 [dUMP], which “Native-PAGE, disruption of Dut-Stl complex” value (ϕDI Dut-Stl complex [1]) is on record?
Its value is “only a weak reduction in ϕDI Dut-Stl binding was observed”.

What does the source list for O=c1ccn([C@H]2C[C@H](O)[C@@H](COP(=O)(O)NP(=O)(O)OP(=O)(O)O)O2)c(=O)[nH]1 [dUPNPP, 2-Deoxyuridine-5-[(α,β)-imido]triphosphate]?
X-ray crystallography, 2.1 Å [2]: structure of the ϕDI Dut in complex with dUPNPP; IC50 (ϕDI Dut-Stl complex [3]): 13.9 µM; Kd [4]: 4.9 µM

O=c1ccn([C@H]2C[C@H](O)[C@@H](COP(=O)(O)OP(=O)(O)OP(=O)(O)O)O2)c(=O)[nH]1 [dUTP] was tested. Which Km [5] did it give?
The Km was 17.5 µM.

What about the Km [6] of the same compound?
Its Km is 17.4 µM.

What about the Km [7] of the same compound?
Its Km is 11.1 µM.

What about the Km [8] of the same compound?
Its Km is 13.6 µM.

Which stoichiometry N (Dut:Stl molar ratio) [9] does the source give for “dimeric dUTPase (Dut) from S. aureus phage ϕDI (enzyme)” here?
Its stoichiometry N (Dut:Stl molar ratio) is 1.

“dimeric dUTPase (Dut) from S. aureus phage ϕO11 (enzyme)” was tested. Which stoichiometry N (Dut:Stl molar ratio) [9] did it give?
Its stoichiometry N (Dut:Stl molar ratio) is 1.

Reference: paper PMC5608427, “Convergent evolution involving dimeric and trimeric dUTPases in pathogenicity island mobilization” (PLoS Pathogens, 2017)
